ChEMBL document CHEMBL2424622, “Development of amino-pyrimidine inhibitors of c-Jun N-terminal kinase (JNK): kinase profiling guided optimization of a 1,2,3-benzotriazole lead” (Bioorg Med Chem Lett, 2013)

Tests used:
[1] = molecular target: T1, Atypical kinase COQ8B, mitochondrial (Homo sapiens) (UniProt Q96D53); assay: Competitive binding affinity to ADCK4 (unknown origin) at 10 uM in presence of ATP relative to control
T1 sequence (whole entry): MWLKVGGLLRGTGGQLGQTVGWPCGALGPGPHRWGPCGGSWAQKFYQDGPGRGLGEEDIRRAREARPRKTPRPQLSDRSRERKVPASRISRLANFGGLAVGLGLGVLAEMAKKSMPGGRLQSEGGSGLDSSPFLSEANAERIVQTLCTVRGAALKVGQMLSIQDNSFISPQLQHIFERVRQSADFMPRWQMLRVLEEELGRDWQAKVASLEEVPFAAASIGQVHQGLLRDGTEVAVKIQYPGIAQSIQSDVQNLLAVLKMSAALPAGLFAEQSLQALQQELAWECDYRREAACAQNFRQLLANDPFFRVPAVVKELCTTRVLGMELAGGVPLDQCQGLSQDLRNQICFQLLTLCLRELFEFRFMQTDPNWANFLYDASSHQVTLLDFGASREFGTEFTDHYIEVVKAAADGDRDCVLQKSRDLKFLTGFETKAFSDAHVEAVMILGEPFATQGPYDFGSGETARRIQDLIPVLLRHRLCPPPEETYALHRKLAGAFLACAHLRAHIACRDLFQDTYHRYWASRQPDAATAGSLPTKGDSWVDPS

[2] = molecular target: Mitogen-activated protein kinase kinase kinase 10 (Homo sapiens) (UniProt Q02779); assay: Competitive binding affinity to MLK2 (unknown origin) at 10 uM in presence of ATP relative to control
Homo sapiens = species on record: Homo sapiens; assay: Competitive binding affinity to EGFR L747 to S752 deletion mutant, P753S mutant (unknown origin) at 10 uM in presence of ATP relative to control
[3] = molecular target: T2, Serine/threonine-protein kinase BRSK2 (Homo sapiens) (UniProt Q8IWQ3); assay: Competitive binding affinity to BRSK2 (unknown origin) at 10 uM in presence of ATP relative to control
T2 sequence (whole entry): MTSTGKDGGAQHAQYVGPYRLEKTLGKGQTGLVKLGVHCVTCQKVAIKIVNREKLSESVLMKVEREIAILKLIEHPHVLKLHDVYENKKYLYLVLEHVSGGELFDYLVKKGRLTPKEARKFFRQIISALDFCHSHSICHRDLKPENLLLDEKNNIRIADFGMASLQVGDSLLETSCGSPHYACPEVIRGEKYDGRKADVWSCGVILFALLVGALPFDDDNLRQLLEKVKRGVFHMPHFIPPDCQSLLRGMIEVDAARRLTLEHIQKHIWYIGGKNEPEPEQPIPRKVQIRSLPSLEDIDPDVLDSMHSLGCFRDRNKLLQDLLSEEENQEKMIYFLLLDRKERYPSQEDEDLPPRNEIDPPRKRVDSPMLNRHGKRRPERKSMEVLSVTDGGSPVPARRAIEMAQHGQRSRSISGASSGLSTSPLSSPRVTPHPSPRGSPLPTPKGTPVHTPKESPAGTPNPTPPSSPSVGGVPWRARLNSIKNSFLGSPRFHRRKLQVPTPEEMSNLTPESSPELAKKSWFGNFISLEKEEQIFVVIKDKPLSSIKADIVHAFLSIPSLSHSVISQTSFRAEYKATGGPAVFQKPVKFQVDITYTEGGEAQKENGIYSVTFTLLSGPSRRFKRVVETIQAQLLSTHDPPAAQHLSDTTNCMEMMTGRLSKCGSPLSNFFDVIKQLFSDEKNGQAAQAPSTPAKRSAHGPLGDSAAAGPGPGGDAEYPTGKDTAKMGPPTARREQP

[4] = system: Tyrosine-protein kinase ABL1 (Homo sapiens), P00519 [Y253F]; assay: Competitive binding affinity to ABL1 Y253F mutant (unknown origin) at 10 uM in presence of ATP relative to control
[5] = molecular target: T3, Myosin-IIIb (Homo sapiens) (UniProt Q8WXR4); assay: Competitive binding affinity to MYO3B (unknown origin) at 10 uM in presence of ATP relative to control
T3 sequence (whole entry): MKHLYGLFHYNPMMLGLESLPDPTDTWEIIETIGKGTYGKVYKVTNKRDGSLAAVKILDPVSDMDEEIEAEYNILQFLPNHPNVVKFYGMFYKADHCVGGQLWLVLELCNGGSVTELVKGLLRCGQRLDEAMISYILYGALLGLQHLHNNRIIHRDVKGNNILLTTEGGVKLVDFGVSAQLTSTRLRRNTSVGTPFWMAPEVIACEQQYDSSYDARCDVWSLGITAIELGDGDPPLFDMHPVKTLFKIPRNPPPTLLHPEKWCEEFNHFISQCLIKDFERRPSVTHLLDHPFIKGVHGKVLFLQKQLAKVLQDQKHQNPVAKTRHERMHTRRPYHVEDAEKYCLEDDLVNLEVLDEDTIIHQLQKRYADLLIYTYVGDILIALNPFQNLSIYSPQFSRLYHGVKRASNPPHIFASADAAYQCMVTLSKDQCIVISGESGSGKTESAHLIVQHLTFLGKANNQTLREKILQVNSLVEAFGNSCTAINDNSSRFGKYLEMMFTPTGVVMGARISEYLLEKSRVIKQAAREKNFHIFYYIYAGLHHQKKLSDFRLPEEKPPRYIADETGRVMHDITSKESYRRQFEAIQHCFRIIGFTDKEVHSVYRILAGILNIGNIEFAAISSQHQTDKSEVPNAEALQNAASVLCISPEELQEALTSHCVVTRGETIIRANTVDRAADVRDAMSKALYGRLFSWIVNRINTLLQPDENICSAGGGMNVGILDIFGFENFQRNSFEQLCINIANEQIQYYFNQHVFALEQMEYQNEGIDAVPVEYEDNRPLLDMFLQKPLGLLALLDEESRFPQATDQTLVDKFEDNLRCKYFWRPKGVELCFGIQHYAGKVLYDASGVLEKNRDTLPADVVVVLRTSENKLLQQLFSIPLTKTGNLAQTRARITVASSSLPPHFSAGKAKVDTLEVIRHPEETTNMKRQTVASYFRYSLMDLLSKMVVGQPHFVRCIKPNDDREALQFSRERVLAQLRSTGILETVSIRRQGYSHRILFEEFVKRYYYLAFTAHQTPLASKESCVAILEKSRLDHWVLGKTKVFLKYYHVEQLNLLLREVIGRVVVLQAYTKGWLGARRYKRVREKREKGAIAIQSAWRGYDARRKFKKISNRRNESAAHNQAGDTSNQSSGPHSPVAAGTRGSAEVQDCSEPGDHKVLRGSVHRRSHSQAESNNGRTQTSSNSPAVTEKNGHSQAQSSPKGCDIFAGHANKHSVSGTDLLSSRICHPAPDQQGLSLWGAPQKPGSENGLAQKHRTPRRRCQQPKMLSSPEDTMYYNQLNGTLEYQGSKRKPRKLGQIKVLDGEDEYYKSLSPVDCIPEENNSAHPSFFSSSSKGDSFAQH

Sequence of Mitogen-activated protein kinase kinase kinase 10 (Homo sapiens) (Q02779 whole entry, looked up): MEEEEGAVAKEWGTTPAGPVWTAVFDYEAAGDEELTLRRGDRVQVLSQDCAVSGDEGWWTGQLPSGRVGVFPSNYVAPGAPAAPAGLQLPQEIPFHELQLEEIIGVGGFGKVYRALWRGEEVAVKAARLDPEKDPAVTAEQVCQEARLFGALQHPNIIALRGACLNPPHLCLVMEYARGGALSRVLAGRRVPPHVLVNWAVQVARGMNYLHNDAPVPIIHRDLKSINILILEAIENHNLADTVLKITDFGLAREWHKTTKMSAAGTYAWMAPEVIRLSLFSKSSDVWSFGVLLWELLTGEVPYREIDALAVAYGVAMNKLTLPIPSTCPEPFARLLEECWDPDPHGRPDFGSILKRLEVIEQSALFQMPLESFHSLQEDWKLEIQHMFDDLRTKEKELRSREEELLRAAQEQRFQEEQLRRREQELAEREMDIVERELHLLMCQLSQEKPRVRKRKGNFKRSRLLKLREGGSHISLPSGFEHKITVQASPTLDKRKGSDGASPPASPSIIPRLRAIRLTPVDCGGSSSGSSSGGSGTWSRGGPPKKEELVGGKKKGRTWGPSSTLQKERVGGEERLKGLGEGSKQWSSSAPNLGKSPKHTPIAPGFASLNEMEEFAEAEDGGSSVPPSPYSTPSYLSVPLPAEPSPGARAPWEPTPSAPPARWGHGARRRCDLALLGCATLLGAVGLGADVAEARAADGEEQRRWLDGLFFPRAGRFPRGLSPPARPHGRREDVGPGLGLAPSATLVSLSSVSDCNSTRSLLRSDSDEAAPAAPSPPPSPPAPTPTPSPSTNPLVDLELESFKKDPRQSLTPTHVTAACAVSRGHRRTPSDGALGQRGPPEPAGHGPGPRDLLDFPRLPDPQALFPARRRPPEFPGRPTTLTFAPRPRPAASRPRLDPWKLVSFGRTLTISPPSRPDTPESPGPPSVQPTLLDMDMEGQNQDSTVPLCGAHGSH

Row | SMILES | inhibition [1] | inhibition [2] | inhibition (Homo sapiens) | inhibition [3] | inhibition [4] | inhibition [5]
1 | CS(=O)(=O)CCCOc1cccc2c1ccn2-c1ccnc(N[C@H]2CC[C@H](C(=O)N3CCC(O)CC3)CC2)n1 | > 85% | – | – | – | – | –
2 | O[C@H]1CC[C@H](Nc2nccc(-n3ccc4ccccc43)n2)CC1 | 76% | < 50% | < 50% | < 50% | < 50% | < 50%
3 | O[C@H]1CC[C@H](Nc2nccc(-n3nnc4ccccc43)n2)CC1 | 70% | < 50% | < 50% | < 50% | 66% | < 50%
4 | O[C@H]1CC[C@H](Nc2nccc(-n3ncc4ccccc43)n2)CC1 | 79% | < 50% | < 50% | < 50% | < 50% | < 50%
5 | O[C@H]1CC[C@H](Nc2nccc(-c3n[nH]c4ccccc34)n2)CC1 | 74% | – | < 50% | 69% | < 50% | –
